pIC50: −log10 of the molar value.
Tests used:
Plasmodium falciparum [1] = test system: Plasmodium falciparum
Description: (§1) Antimalarial activity against Plasmodium falciparum W2

Plasmodium falciparum [2] = test system: Plasmodium falciparum; remark: listed apart in the source
Description: (§2) Antimalarial activity against Plasmodium falciparum D6

Plasmodium falciparum [3] = test system: Plasmodium falciparum; remark: listed apart in the source
Description: (§3) Antimalarial activity against Plasmodium falciparum TM91C235

UO-31 = experiment: Antiproliferative activity against human UO31 cell line after 48 hrs; type: functional; conditions: Homo sapiens, UO-31, 48 h; for CC50: read-out: LC50 (the source's name)
LOX IMVI = experiment: Antiproliferative activity against human LOX IMVI cell line after 48 hrs; type: functional
IGROV-1 = experiment: Antiproliferative activity against human IGROV1 cell line after 48 hrs; type: functional; conditions: for CC50: read-out: LC50 (the source's name)
Plasmodium falciparum [4] = experiment: microbe, parasite or virus in culture; conditions: TM91C235
Description: as §3

Plasmodium falciparum [5] = experiment: microbe, parasite or virus in culture; conditions: W2
Description: as §1

Plasmodium falciparum [6] = experiment: microbe, parasite or virus in culture; conditions: D6
Description: as §2

ACHN = experiment: Antiproliferative activity against human ACHN cell line after 48 hrs; type: functional
EKVX = experiment: Antiproliferative activity against human EKVX cell line after 48 hrs; type: functional; conditions: Homo sapiens, EKVX, 48 h
Mus musculus [7] = experiment: Effect on survival of CD1 mice (Mus musculus) infected with Plasmodium berghei KBG173 at 200 mg/kg/day, perorally; type: functional; conditions: route oral
Mus musculus [8] = experiment: Effect on survival of CD1 mice (Mus musculus) infected with Plasmodium berghei KBG173 at 600 mg/kg/day, perorally; type: functional, organism-based; parameters: route oral; conditions: route oral
HOP-62 = experiment: Antiproliferative activity against human HOP62 cell line after 48 hrs; type: functional; conditions: Homo sapiens, HOP-62, 48 h
PC-3 = experiment: Antiproliferative activity against human PC3 cell line after 48 hrs; type: functional; conditions: PC-3, 48 h
HCT-15 = experiment: Antiproliferative activity against human HCT15 cell line after 48 hrs; type: functional; conditions: HCT-15, 48 h
UACC-62 = experiment: Antiproliferative activity against human UACC62 cell line after 48 hrs; type: functional; conditions: UACC-62, 48 h
SNB-75 = experiment: Antiproliferative activity against human SNB75 cell line after 48 hrs; type: functional; conditions: SNB-75, 48 h
COLO 205 = experiment: Antiproliferative activity against human COLO 205 cell line after 48 hrs; type: functional; conditions: Homo sapiens, COLO 205, 48 h
DU-145 = experiment: Antiproliferative activity against human DU145 cell line after 48 hrs; type: functional; conditions: DU-145, 48 h
SK-MEL-2 = experiment: Antiproliferative activity against human SK-MEL2 cell line after 48 hrs; type: functional; conditions: SK-MEL-2, 48 h
Mus musculus [9] = experiment: Effect on survival of CD1 mice (Mus musculus) infected with Plasmodium berghei KBG173 at 50 mg/kg/day, perorally; type: functional; conditions: route oral
[10] = read-out: LC50 (the source's name)

CCCNC(=O)CC[C@@H](C)[C@H]1CC[C@H]2[C@@H]3[C@H](OC(C)=O)C[C@@H]4CC5(CC[C@]4(C)[C@H]3C[C@H](OC(C)=O)[C@]12C)OOC1(CCC(C(=O)NCCC)CC1)OO5 (stereo in doubt; 9)
pIC50 (Plasmodium falciparum [1]): 7.74 | IC90 (Plasmodium falciparum [1]): 39.6 nM | pIC50 (Plasmodium falciparum [2]): 7.98 | IC90 (Plasmodium falciparum [2]): 17.8 nM | pIC50 (Plasmodium falciparum [3]): 7.83 | IC90 (Plasmodium falciparum [3]): 63.2 nM

CC(=O)O[C@H]1C[C@H]2[C@@H]([C@H](OC(C)=O)C[C@@H]3CC4(CC[C@@]32C)OOC2(CCC(C(=O)O)CC2)OO4)[C@@H]2CC[C@H]([C@H](C)CCC(=O)O)[C@@]12C (stereo in doubt; 6a)
pIC50 (Plasmodium falciparum [1]): 6.87 | IC90 (Plasmodium falciparum [1]): 156 nM | GI50 (UO-31): 1740 nM | TGI (UO-31): 3650 nM | CC50 (UO-31): 7660 nM | pIC50 (Plasmodium falciparum [2]): 7.01 | IC90 (Plasmodium falciparum [2]): 147 nM | pIC50 (Plasmodium falciparum [3]): 6.87 | IC90 (Plasmodium falciparum [3]): 257 nM

CCCOC(=O)CC[C@@H](C)[C@H]1CC[C@H]2[C@@H]3[C@H](OC(C)=O)C[C@@H]4CC5(CC[C@]4(C)[C@H]3C[C@H](OC(C)=O)[C@]12C)OOC1(CCC(C(=O)OCCC)CC1)OO5 (stereo in doubt; 5a)
pIC50 (Plasmodium falciparum [1]): 8.05 | IC90 (Plasmodium falciparum [1]): 17.4 nM | GI50 (UO-31): 1150 nM | TGI (UO-31): 2440 nM | CC50 (UO-31): 5190 nM | GI50 (LOX IMVI): 1090 nM | TGI (LOX IMVI): 2740 nM | CC50 (LOX IMVI; [10]): 6910 nM | pIC50 (Plasmodium falciparum [2]): 8.17 | IC90 (Plasmodium falciparum [2]): 9.4 nM | pIC50 (Plasmodium falciparum [3]): 8.06 | IC90 (Plasmodium falciparum [3]): 18 nM | GI50 (IGROV-1; Homo sapiens, IGROV-1, 48 h): 1990 nM | TGI (IGROV-1; Homo sapiens, IGROV-1, 48 h): 6160 nM | CC50 (IGROV-1; Homo sapiens, IGROV-1, 48 h): > 100000 nM

CCCOC(=O)CC[C@@H](C)[C@H]1CC[C@H]2[C@@H]3[C@H](OC(C)=O)C[C@@H]4CC5(CC[C@]4(C)[C@H]3C[C@H](OC(C)=O)[C@]12C)OOC1(CCC(C(=O)OCCC)CC1)OO5 (stereo in doubt; 5b)
pIC50 (Plasmodium falciparum [1]): 7.38 | IC90 (Plasmodium falciparum [1]): 83.5 nM | pIC50 (Plasmodium falciparum [2]): 7.52 | IC90 (Plasmodium falciparum [2]): 47.4 nM | pIC50 (Plasmodium falciparum [3]): 7.37 | IC90 (Plasmodium falciparum [3]): 75.8 nM

CC(=O)O[C@H]1C[C@H]2[C@@H]([C@H](OC(C)=O)C[C@@H]3CC4(CC[C@@]32C)OOC2(CCC(C(N)=O)CC2)OO4)[C@@H]2CC[C@H]([C@H](C)CCC(N)=O)[C@@]12C (stereo in doubt; 8)
pIC50 (Plasmodium falciparum [1]): 6.92 | IC90 (Plasmodium falciparum [1]): 265 nM | pIC50 (Plasmodium falciparum [2]): 6.92 | IC90 (Plasmodium falciparum [2]): 196 nM | pIC50 (Plasmodium falciparum [3]): 6.78 | IC90 (Plasmodium falciparum [3]): 249 nM

O[C@@H](c1cc(C(F)(F)F)nc2c(C(F)(F)F)cccc12)[C@H]1CCCCN1 [MEFLOQUINE]
pIC50 (Plasmodium falciparum [4]): 7.79 | IC90 (Plasmodium falciparum [4]): 65.7 nM | pIC50 (Plasmodium falciparum [5]): 8.51 | IC90 (Plasmodium falciparum [5]): 8.4 nM | pIC50 (Plasmodium falciparum [6]): 7.98 | IC90 (Plasmodium falciparum [6]): 21.7 nM

CCCNC(=O)CC[C@@H](C)[C@H]1CC[C@H]2[C@@H]3[C@H](OC(C)=O)C[C@@H]4CC5(CC[C@]4(C)[C@H]3C[C@H](OC(C)=O)[C@]12C)OOC1(CCC(C(=O)NCCC)CC1)OO5 (stereo in doubt; 10)
pIC50 (Plasmodium falciparum [1]): 7.23 | pIC50 (Plasmodium falciparum [2]): 7.41 | IC90 (Plasmodium falciparum [2]): 56 nM | IC90 (Plasmodium falciparum [5]): 78 nM | pIC50 (Plasmodium falciparum [3]): 7.28 | IC90 (Plasmodium falciparum [3]): 127 nM

CC(=O)O[C@H]1C[C@H]2[C@@H]([C@H](OC(C)=O)C[C@@H]3CC4(CC[C@@]32C)OOC2(CCC(C)CC2)OO4)[C@@H]2CC[C@H]([C@H](C)CCC(N)=O)[C@@]12C (stereo in doubt; 17)
LC50 (ACHN): 5730 nM | GI50 (ACHN; Homo sapiens, ACHN, 48 h): 1500 nM | TGI (ACHN; Homo sapiens, ACHN, 48 h): 2930 nM | GI50 (EKVX): 1430 nM | LC50 (EKVX): 5410 nM | TGI (EKVX): 2780 nM | Activity (Mus musculus [7]): 21.8 days | pIC50 (Plasmodium falciparum [1]): 7.85 | GI50 (UO-31): 1260 nM | TGI (UO-31): 2640 nM | CC50 (UO-31): 5500 nM | Activity (Mus musculus [8]): 30 days | GI50 (HOP-62): 1070 nM | TGI (HOP-62): 2310 nM | CC50 (HOP-62; [10]): 4980 nM | GI50 (PC-3): 1970 nM | TGI (PC-3): 4290 nM | CC50 (PC-3; [10]): 9310 nM | GI50 (HCT-15): 1710 nM | TGI (HCT-15): 3430 nM | CC50 (HCT-15; [10]): 6860 nM | GI50 (UACC-62): 1850 nM | TGI (UACC-62): 3990 nM | CC50 (UACC-62; [10]): 8590 nM | pIC50 (Plasmodium falciparum [2]): 7.70 | GI50 (SNB-75): 1980 nM | TGI (SNB-75): 4050 nM | CC50 (SNB-75; [10]): 8280 nM | GI50 (COLO 205): 1690 nM | TGI (COLO 205): 3120 nM | CC50 (COLO 205; [10]): 5760 nM | GI50 (DU-145): 1820 nM | TGI (DU-145): 3260 nM | CC50 (DU-145; [10]): 5850 nM | GI50 (IGROV-1): 490 nM | TGI (IGROV-1; Homo sapiens, IGROV-1, 48 h): 1840 nM | CC50 (IGROV-1; Homo sapiens, IGROV-1, 48 h): 4950 nM | GI50 (SK-MEL-2): 1710 nM | TGI (SK-MEL-2): 3200 nM | CC50 (SK-MEL-2; [10]): 6010 nM | Activity (Mus musculus [9]): 21.2 days

Source: ChEMBL document CHEMBL1138055, “Tetraoxane antimalarials and their reaction with Fe(II)” (J Med Chem, 2006)
